Measurements published in patent US4265882A, “Sulphur analogs of penicillins having a nucleophile substituted in the 6 and 7 position, respectively” (Massachusetts Institute of Technology, priority 1977, dated 1981).

How the values were obtained:
[1] = literature; cited from earlier work
[2] = system: Bacillus subtillis ATCC 6051; test: Minimum inhibitory concentration in vitro, Bacillus subtillis; format: cell-based; design: unit not given here; conditions: free acids tested after removal of ester protective group
Description: (§1) General Procedure for Removing Protective Groups
(§2) The ester (100-200 mg) is dissolved in approx. 10 ml of 90% HOAc and the solution cooled to 0° before 1-1.5 g of zinc dust is added. The mixture is stirred at 0° for 3-5 hr. Removal of the zinc by filtration through celite into a flask containing 100 ml of ice-H2 O and washing the zinc with methylene chloride (50 ml) yielded a two-phase system. Separation of the organic layer, extraction of the aqueous layer with several methylene chloride-zinc washings, drying (MgSO4) and removal of the solvent under reduced pressure (no heat) afforded the free acid.
(§3) For purification (if required) the acid was dissolved in CH2 Cl2 and extracted with aqueous NaHCO3. The aqueous layer, after being extracted several times with CH2 Cl2, was cooled with ice and acidified with dilute HCl. Extraction with CH2 Cl2, drying (MgSO4) and removal of the solvent under reduced pressure (no heat) gave the pure acid.
(§4) A flask, charged with the ester, is submerged in an ice bath 5-10 min. before cold trifluoroacetic acid is added. The solution is stirred at 0° for 30-45 min. and then the solvent removed by distillation under reduced pressure (2-3 mm) with the reaction flask still submerged in the ice bath. The residue is freeze dried from benzene.
If purification is required, it is done in the same manner as described for removal of the trichloroethyl group (see above).
The benzhydryl group is removed in the same manner as described for the removal of the t-butyl group, above. After freeze drying the residue was purified in the following manner. The acid was dissolved in methylene chloride and extracted with aqueous NaHCO3. The aqueous layer, after being extracted several times with methylene chloride, was partitioned with methylene chloride, cooled with ice, and acidified with dilute HCl. Extraction with methylene chloride, drying (MgSO4), and removal of the solvent under reduced pressure (no heat) gave the pure acid.
In order to remove the protective benzyhydryl group from benzyhydryl-6β-(triophene-2-acetylthio)-6α-methoxypenicillanate, the following procedure was found necessary. The ester (70-80 mg) is dissolved in 10 ml of CH2 Cl2 and the solution cooled to -77° (CO2 -acetone) before the addition of 0.5 ml of trifluoroacetic acid. The solution was warmed to approximately -10° (NaCl-H2 O-ice) and stirred at that temperature for 5-6 hr. The solution was cooled to -77° and 75-100 ml of benzene added. After the contents of the flask solidified the acid was isolated by freeze drying and bioassayed without purification.
The protective groups of the penicillin and cephalosporin esters were removed as described above and the resulting free acids were tested in vitro for bioactivity.

[3] = system: certain Gram-negative organisms; conditions: background; cited from earlier work
[4] = system: certain resistant staphylococci; conditions: background; cited from earlier work
Sarcina lutea = test: Minimum inhibitory concentration in vitro, Sarcina lutea; format: cell-based; conditions: free acids tested after removal of ester protective group
Description: as §1, §2, §3, §4
(§5) If purification is required, it is done in the same manner as described for removal of the trichloroethyl group (see above). […]

[5] = system: Staphylococcus aerus (Roche); test: Minimum inhibitory concentration in vitro, Staphylococcus aerus (Roche); format: cell-based; design: unit not given here; conditions: free acids tested after removal of ester protective group
Description: as §1, §2, §3, §4, §5

CC1(C)S[C@@H]2[C@@H](OC(=O)COc3ccccc3)C(=O)N2[C@H]1C(=O)O [6α-phenoxyacetoxypenicillanic acid]
biological activity [1]: exhibits no biological activity

COC1(SC(=O)OCC(Cl)(Cl)Cl)C(=O)N2C(C(=O)OC(c3ccccc3)c3ccccc3)C(C)(C)SC21 (stereo not drawn) [Benzhydryl 6β-(β,β,β-trichloroethoxycarbothio)6α-methoxypenicillanate]
Minimum Inhibitory Concentration [2]: 100

CC1(C)S[C@@H]2[C@H](NC(=O)[C@H](N)c3ccccc3)C(=O)N2[C@H]1C(=O)O [ampicillin]
broadened spectra of activity, Gram-negative organisms [3]: broadened the spectra to activity to include use against certain Gram-negative organisms

CC1(C)S[C@@H]2[C@H](NC(=O)C(C(=O)O)c3ccccc3)C(=O)N2[C@H]1C(=O)O (some centres unmarked) [carbenicillin]
broadened spectra of activity, Gram-negative organisms [3]: broadened the spectra to activity to include use against certain Gram-negative organisms

COc1cccc(OC)c1C(=O)N[C@@H]1C(=O)N2[C@@H]1SC(C)(C)[C@@H]2C(=O)O [methicillin]
activity against certain resistant staphylococci [4]: good activity

COC(=O)SC1(OC)C(=O)N2C(C(=O)OC(C)(C)C)=C(COC(C)=O)CSC21 (stereo not drawn) [t-Butyl 7β-(methoxycarbothio)-7α-methoxycephalosporanate]
Minimum Inhibitory Concentration (Sarcina lutea): 25 mg/mL
Minimum Inhibitory Concentration [2]: 50
Minimum Inhibitory Concentration [5]: 50

COC1(SC(=O)Cc2ccccc2)C(=O)N2C(C(=O)OC(C)(C)C)=C(COC(C)=O)CSC21 (stereo not drawn) [tert-Butyl 7β-(phenylacetylthio)-7α-methoxycephalosporanate]
Minimum Inhibitory Concentration (Sarcina lutea): 100 mg/mL
Minimum Inhibitory Concentration [2]: < 6.25

COC1(SC(=O)Cc2cccs2)C(=O)N2C(C(=O)OC(C)(C)C)=C(COC(C)=O)CSC21 (stereo not drawn) [tert-Butyl 7β-(thiophene-2-acetylthio)-7α-methoxycephalosporanate]
Minimum Inhibitory Concentration [2]: 50
